Reference: patent US9966622B2, “Small organic molecule based flow battery” (President and Fellows of Harvard College, priority 2012, dated 2018)
Converted amounts (≈) assume the structure as drawn. “And” between values parts separate entries of the source, which are not always exact repeats. Equal values may be shown once. Read-outs that look alike come from different tables or passages of the source.

Legend:
[1] = Half-cell cyclic voltammetry of quinones, E^0 (Example 13); format: physicochemical; conditions: 1 mM in 1 M sulfuric acid, pH 0, glassy carbon, 25 mV/s
Description: 1 mM solutions of the quinones listed in the following table were prepared in 1 M sulfuric acid solution. The pH of the solutions was 0. Half-cell electrochemical data were recorded using a working electrode consisting of a flat 3 mm diameter disk of glassy carbon, a coiled platinum wire as a counter electrode, and a Ag/AgCl reference electrode. Cyclic voltammograms were recorded using sweep rates of 25 mV/s.

[2] = cited from earlier work
[3] = Cyclic voltammetry of AQDS on glassy carbon (Example 3); format: physicochemical; conditions: 1 mM in 1 M sulfuric acid, glassy carbon disc
Excerpt: AQDS was subjected to half-cell electrochemical measurements. […] The peak separation of 34 mV was close to the 59 mV/n, where n was the number of electrons involved, expected for a two-electron process.

[4] = Rotating disk electrode measurements of AQDS (Example 4); format: physicochemical
Description: FIG. 5B is a graph of rotating disk electrode measurements using a glassy carbon electrode in 1 M H2SO4 at eleven rotation rates ranging from 200 (red) to 3600 rpm (dk. green).
FIG. 6 is a Levich plot (current vs. rotation rate) of 1 mM AQDS in 1 M H2SO4. Best fit line has a slope of 0.453(2) μA s^1/2 rad^−1/2.
FIG. 7 is a Koutecký-Levich plot (current^−1 vs. rotation rate^−1/2).
FIG. 8 is a Tafel plot (overpotential vs. log(current)) constructed using the current response in the absence of mass-transport at low overpotentials, extrapolated from the zero-intercept of FIG. 7 (infinite rotation rate). Best fit line is the function y=62(x+4.32). This yields α=0.474(2) and k0=7.2(5)×10^−3 cm s^−1.
The glassy carbon disk in Example 3 was rotated at a variety of rates yields mass-transport limited currents from which the AQDS diffusion coefficient (D=3.8(1)×10^−6 cm^2 s^−1)(compare D in [38]) and kinetic reduction rate constant could be determined (FIGS. 5B, 6, 7, and 8). […] This rate constant was faster than that found for many other species used in flow cells such as V^3+/V^2+, Br2/Br^−, and S4^2−/S2^2− (see Table 2 in [40]). The electrochemical reversibility of the two-electron redox reaction was confirmed by the slope of the Tafel plot (FIG. 8), which gave the transfer coefficient α=0.474, which is close to the value of 0.5 expected for an ideally reversible reaction.

[5] = Pourbaix diagram of AQDS redox couple vs. pH (Example 5); format: physicochemical
Description: FIG. 5C is a Pourbaix diagram of AQDS. Solid lines indicate slopes of −59 mV/pH, −30 mV/pH, and 0 mV/pH, corresponding to two-, one-, and zero-proton processes respectively. Dashed lines linearly extrapolate the one- and zero-proton processes to give E^0 values of 18 mV (2 e^−/1 H^+) and −296 mV (2 e^−/0 H^+).
To further understand the AQDS redox behavior, we generated a Pourbaix diagram (FIG. 5C) of the equilibrium potential of the AQDS redox couple vs. pH. Aqueous 1 mM solutions of AQDS disodium salt were prepared and pH buffered using the following chemicals: sulfuric acid (1 M, pH 0), HSO4^−/SO4^2− (0.1 M, pH 1-2), AcOH/AcO^− (0.1 M, pH 2.65-5), H2PO4^−/HPO4^2− (0.1 M, pH 5.3-8), HPO4^2−/PO4^3− (0.1 M, pH 9.28-11.52), and KOH (0.1 M, pH 13). The pH of each solution was adjusted with 1 M H2SO4 or 0.1 M KOH solutions. […] In more basic conditions (7<pH<11), a two-electron, one-proton process occurred, giving a 30 mV/pH slope. The potential became pH-independent at values greater than 11, which indicated a two-electron, zero-proton process.

[6] = Aqueous solubility; format: physicochemical; conditions: pH 0, aqueous buffer
[7] = Stability of AQDS to Br2 / HBr by NMR (Example 12); format: physicochemical; conditions: for stability to 2 M / concentrated HBr and Br2: heated to 100° C. for 48 h (two days)
Description: 50 mg of 9,10-anthraquinone-2,7-disulfonic acid was dissolved in 0.4 mL of D2O was treated with 100 μL of Br2. The ^1H and ^13C NMR spectra (FIGS. 17A-B and 18A-B) were unchanged from the starting material after standing for 20 hours at 25° C. 50 mg of AQDS was then treated with 1 mL of concentrated HBr and 100 μL of Br2. The reaction was heated to 100° C. for 48 h and evaporated to dryness at that temperature. The resulting solid was fully dissolved in D2O giving unchanged and ^1H and ^13C NMR (FIGS. 17C and 18C); however, the ^1H NMR reference was shifted due to residual acid.

[8] = Stability of quinone form in aqueous solution, cyclic voltammetry of catechol (Example 1); format: physicochemical; conditions: 1 N H2SO4
Excerpt: 1 molal 1,2-ortho-benzohydroquinone (catechol) was oxidized in 1 N H2SO4 at a flat Pt electrode, obtaining the cyclic voltammetry curves shown in FIG. 3A. The sweep starts at (0.2 V, 0 mA/cm^2) and proceeds at 25 mV/s to the right. At about 600 mV vs. Ag/AgCl (the known E^0 is 795 mV vs. SHE), the current density increases as catechol is oxidized to the orthoquinone form. The oxidative current density peaks at about 150 mA/cm^2. The peak and downturn are caused by reactant depletion in a quiescent (non-flowing, non-stirred) electrolyte. In a test at a higher concentration of 3.9 molal (FIG. 3B), we observe asymmetric oxidation and reduction peaks, achieving current densities above 500 mA/cm^2 for the former. The asymmetric shape of the curve in FIG. 3B arises because the quinone form is unstable in aqueous solution. In addition the limited solubility of ortho-benzoquinone (0.06 M) compared to its reduced form precludes symmetric behavior at high concentration.

[9] = aqueous, no source given; cited from earlier work
[10] = Half-cell cyclic voltammetry compared with AQDS (Examples 6 and 7); format: physicochemical; conditions: 1 mM in 1 M H2SO4; listed as 1,8-(OH)2-AQDS

| Molecule | Standard Reduction Potential E^0 in Volts vs. the standard hydrogen electrode (SHE) [1] [Volts] | also measured |
| --- | --- | --- |
| O=C1C=C(S(=O)(=O)O)C(=O)c2ccccc21 [Entry 12, 1,4-naphthoquinone-2-sulfonic acid] | 0.356 | – |
| CC1=C(C)C(=O)C(C)=C(C)C1=O [tetramethylbenzoquinone] | – | redox potential ([2]; aqueous, literature values [28], [29]): 0.040 V and 0.068 V |
| O=C1c2ccccc2C(=O)c2c(O)c(S(=O)(=O)O)c(O)c(O)c21 [Entry 10, 1,3,4-trihydroxy-9,10-anthraquinone-2-sulfonic acid] | 0.088 | – |
| O=C1c2ccccc2C(=O)c2cc(S(=O)(=O)O)ccc21 [Entry 5, 9,10-anthraquinone-2-sulfonic acid] | 0.171 | – |
| Oc1ccccc1O [catechol, 1,2-ortho-benzohydroquinone] | – | known E^0 ([2]; vs. SHE): 795 mV |
| O=C1C=CC=CC1=O [ortho-benzoquinone] | – | stability in aqueous solution [8]: unstable; solubility [9]: 60 mM (≈ 6.49 mg/mL) |
| O=C1C=C(S(=O)(=O)O)c2ccccc2C1=O [Entry 11, 1,2-naphthoquinone-4-sulfonic acid] | 0.423 | – |
| 2-bromo-1,4-naphthoquinone-3-sulfonic acid [Entry 14] | 0.371 | – |

The next lines start with results.

| Standard Reduction Potential E^0 in Volts vs. the standard hydrogen electrode (SHE) [1] [Volts] | Molecule | also measured |
| --- | --- | --- |
| 0.212 | O=C1c2ccc(S(=O)(=O)O)cc2C(=O)c2ccc(S(=O)(=O)O)cc21 [Entry 2, 9,10-anthraquinone-2,6-disulfonic acid] | – |
| 0.094 | O=C1c2ccccc2C(=O)c2c(O)c(S(=O)(=O)O)cc(O)c21 [Entry 9, 1,4-dihydroxy-9,10-anthraquinone-2-sulfonic acid] | – |
| 0.213 | O=C1c2ccc(S(=O)(=O)O)cc2C(=O)c2cc(S(=O)(=O)O)ccc21 [Entry 1, 9,10-anthraquinone-2,7-disulfonic acid] | peak separation (cyclic voltammetry) [3]: 34 mV; diffusion coefficient D ([4]; 1 mM in 1 M H2SO4, rotating glassy carbon disk): 3.8(1)×10^−6 cm^2 s^−1; kinetic reduction rate constant k0 ([4]; reduction on glassy carbon, 1 M H2SO4): 7.2(5)×10^−3 cm s^−1; E^0 (2 e^−/1 H^+), extrapolated ([5]; linear extrapolation of one-proton process): 18 mV; E^0 (2 e^−/0 H^+), extrapolated ([5]; linear extrapolation of zero-proton process): −296 mV; solubility [6]: ~1000 mM (≈ 368 mg/mL); stability to 2 M / concentrated HBr and Br2 [7]: no reaction; stability to 2 M / concentrated HBr and Br2 ([7]; listed as 9,10-anthraquinone-2,7-disulfonate): stable; stability to Br2 (1H and 13C NMR spectra) ([7]; in D2O, 20 hours at 25° C.): unchanged |
| 0.223 | O=C1c2cccc(S(=O)(=O)O)c2C(=O)c2cccc(S(=O)(=O)O)c21 [Entry 4, 9,10-anthraquinone-1,5-disulfonic acid] | – |
| 0.182 | O=C1c2cccc(S(=O)(=O)O)c2C(=O)c2c1cccc2S(=O)(=O)O [Entry 3, 9,10-anthraquinone-1,8-disulfonic acid] | – |
| 0.114 | O=C1c2ccccc2C(=O)c2cc(CS(=O)(=O)O)c(CS(=O)(=O)O)cc21 [Entry 6, 9,10-anthraquinone-2,3-dimethanesulfonic acid] | – |
| 0.116 | O=C1c2ccc(S(=O)(=O)O)c(O)c2C(=O)c2ccc(S(=O)(=O)O)c(O)c21 [Entry 8, 1,5-dihydroxy-9,10-anthraquinone-2,6-disulfonic acid] | – |
| 0.368 | O=C1C(Cl)=C(S(=O)(=O)O)C(=O)c2ccccc21 [Entry 13, 2-chloro-1,4-naphthoquinone-3-sulfonic acid] | – |
| 0.118 | O=C1c2ccc(S(=O)(=O)O)c(O)c2C(=O)c2c1ccc(S(=O)(=O)O)c2O [Entry 7, 1,8-dihydroxy-9,10-anthraquinone-2,7-disulfonic acid] | lowering of reduction potential relative to AQDS [10]: ~100 mV and 95 mV |
